We go through one compound from US20120108592A1, “PHARMACEUTICAL COMPOSITIONS AND METHODS OF USE OF SALICYLANILIDES FOR TREATMENT OF HEPATITIS VIRUSES” (priority 2010, published 2012).

Several values for one entry are separate records, joined by “and”; a condition that tells them apart may be missing. Equal entries are not always repeated. Bounds are passed on as bounds.

The subject of one data set is cytochrome P450 enzymes. The settings on record: cited from earlier work.
A short description of data set [1]: Secondary HCV replicon cell assay genotype 1a, cytotoxicity (neutral red dye uptake). Format: cell-based. The settings on record: human.
Procedure: (§3) Antiviral activity of test compounds was assessed in a 3-day assay using the stably-expressing HCV replicon cell line, AVA5 (sub-genomic CONI, genotype 1b) [Korba, B. E. et al. Antiviral Res. 77, 56-63 (2008); Blight et al., Science 290, 1972-1974 (2000)] maintained as sub-confluent cultures on 96-well plates as previously described [Okuse et al., Antiviral Research 65, 23-34 (2005)]. Antiviral activity was determined by blot hybridization analysis of intracellular HCV RNA (normalized to the level of cellular B-actin RNA in each culture sample) and cytotoxicity was assessed by neutral red dye uptake after 3 days of treatment. Additional studies were performed using Huh7 cells containing another HCV replicon, H/FL-Neo, a genotype la full length construct [Blight et al., J. Virol. […] For studies involving human serum, standard culture medium (which contains 10% fetal bovine serum) and assay conditions were maintained.
Data set [2] has as its system HBV replication intermediates in 2.2.15 cells. Put plainly: HBV antiviral assay in 2.2.15 cells, replication intermediates (RI) HBV DNA. Format: cell-based. The settings on record: Hepatitis B virus.
Procedure: (§4) HBV antiviral assays were conducted as previously described [Korba, B. E. et al. Antiviral Res. 77, 56-63 (2008);].
The subject of data set [3] is HCV replicon cell line, AVA5 (sub-genomic CONI, genotype 1b). The data set can be described thus: Secondary HCV replicon cell assay genotype 1b, antiviral activity. It counts as cell-based. As to conditions: Hepatitis C virus. On the procedure: (§1) Antiviral activity of test compounds was assessed in a 3-day assay using the stably-expressing HCV replicon cell line, AVA5 (sub-genomic CONI, genotype 1b) [Korba, B. E. et al. Antiviral Res. 77, 56-63 (2008); Blight et al., Science 290, 1972-1974 (2000)] maintained as sub-confluent cultures on 96-well plates as previously described [Okuse et al., Antiviral Research 65, 23-34 (2005)]. Antiviral activity was determined by blot hybridization analysis of intracellular HCV RNA (normalized to the level of cellular B-actin RNA in each culture sample) and cytotoxicity was assessed by neutral red dye uptake after 3 days of treatment. Additional studies were performed using Huh7 cells containing another HCV replicon, H/FL-Neo, a genotype la full length construct [Blight et al., J. Virol. 77, 3181-3190 (2003)]. For studies involving human serum, standard culture medium (which contains 10% fetal bovine serum) and assay conditions were maintained.
(§2) EC50, EC90 and CC50 values (±standard deviations [S.D.]) were calculated by linear regression analysis using data combined from all treated cultures (Korba, B. E. et al. Antiviral Res. 77, 56-63 (2008)). […] Selectivity index (S.I.) was calculated as CC50/EC90 for HBV assays and CC50/EC50 for HCV assays.
(In general: Replicon systems follow genome replication, usually without infectious particles.)

The nature of data set [4]: Secondary HCV replicon cell assay genotype 1b, cytotoxicity (neutral red dye uptake). Format: cell-based. As to conditions: human.
Procedure: as §3
In data set [5] the test system is AVA5 HCV replicon cell line. Put plainly: Primary HCV replicon cell assay, cytotoxicity (neutral red dye uptake). Format: cell-based. The settings on record: 3 days of treatment.
Procedure: as §3
Data set [6] has as its system HCV replicon cell line, AVA5 (sub-genomic CONI, genotype 1b). The data set can be described thus: Primary HCV replicon cell assay, antiviral activity (intracellular HCV RNA, blot hybridization). Format: cell-based. As to conditions: Hepatitis C virus, Ava5, 72 h, 3-day assay. The procedure: as §1, §2
In data set [7] the test system is HCV replicon H/FL-Neo, genotype 1a full length construct, in Huh7 cells. The data set can be described thus: Secondary HCV replicon cell assay genotype 1a, antiviral activity. It counts as cell-based. As to conditions: Hepatitis C virus. The procedure: as §1, §2
The test system of data set [8] is HBV virion in 2.2.15 cells. The data set can be described thus: HBV antiviral assay in 2.2.15 cells, virion (VIR) HBV DNA. Format: cell-based. The settings on record: Hepatitis B virus.
Procedure: as §4
The conditions of data set [9]: cited from earlier work.
Data set [10] in a line: Cytotoxicity in 2.2.15 cells (neutral red dye uptake). Format: cell-based. As to conditions: human, nine daily doses. On the procedure:
Briefly, confluent cultures of 2.2.15 cells were maintained on 96-well flat-bottomed tissue culture plates (confluence in this culture system is required for active, high levels of HBV replication equivalent to that observed in chronically-infected individuals. Cultures were treated with nine consecutive daily doses of the test compounds. HBV DNA levels were assessed by quantitative blot hybridization 24 hr. after the last treatment. Cytotoxicity was assessed by uptake of neutral red dye 24 hr. following the last treatment.

The mark [11] stands for this setting: 2-fold depression of intracellular HCV RNA.
The mark [12] stands for this setting: 10-fold depression of intracellular HCV RNA.

Broadly, the CC50 is the concentration that lowers cell viability or growth by half. Read a high CC50 as better tolerance by the cells. Usually EC50 stands for the concentration needed to bring the measured effect to its halfway point. The term EC90 denotes the concentration at which the effect reaches the 90% level.

In the case of `O=C(Nc1ncc([N+](=O)[O-])s1)c1ccccc1O` [TIZ, tizoxanide, reference compound], in the data set on cytochrome P450 enzymes, the “inhibition of cytochrome P450 enzymes” value is listed as “does not inhibit”. Moreover, the values for the CC50 at 3 days in data set [1] and in data set [4] were 27000 nM and 28000 nM, respectively. The EC50 came to 460 nM in data set [2] (read-out: EC50 (RI)); 190 nM in data set [3] (setting [11]); 151 nM in data set [6] (setting [11]); 230 nM in [7] (Huh-7, 2-fold depression of intracellular HCV RNA); 150 nM in data set [8] (read-out: EC50 (VIR)). Also, the EC90 turned out to be 1200 nM in data set [2] (read-out: EC90 (RI)); 920 nM in [3] (setting [12]); 813 nM in [6] (setting [12]); 1000 nM in [7] (Huh-7, 10-fold depression of intracellular HCV RNA); 580 nM in [8] (read-out: EC90 (VIR)). This compound yielded a CC50 in data set [5] of 15000 nM. Also, the “fraction of oral dose excreted in feces as TIZ” value in [9] (oral dose of NTZ) is “Approximately two-thirds”. In addition, in data set [9] (oral, one 500 mg NTZ tablet (Alinia) with food), the “maximum serum concentration of TIZ” value was “approximately 10 μg/mL and ~37 μM”. Besides, the “elimination half-life from plasma” value in data set [9] (plasma) was “approximately 1.5 hours”. Besides, in data set [10], the CC50 at 9 days was more than 100000 nM.
